Laboratory results: ChEMBL document CHEMBL2074451, “ATP- and glutathione-dependent transport of chemotherapeutic drugs by the multidrug resistance protein MRP1” (Br J Pharmacol, 1999)

Experiments:
[1] = target: Multidrug resistance-associated protein 1 (Homo sapiens, UniProt P33527); test: TP_TRANSPORTER: uptake in membrane vesicles from GLC4/ADR cells; format: functional, cell membranes, Membrane vesicle; settings: glc-4/adr
[2] = target: ATP-dependent translocase ABCB1 (Homo sapiens, UniProt P08183); test: TP_TRANSPORTER: uptake in A2780 and A2780AD cells; format: functional, cell-based
Sequence of ATP-dependent translocase ABCB1 (P08183 whole entry): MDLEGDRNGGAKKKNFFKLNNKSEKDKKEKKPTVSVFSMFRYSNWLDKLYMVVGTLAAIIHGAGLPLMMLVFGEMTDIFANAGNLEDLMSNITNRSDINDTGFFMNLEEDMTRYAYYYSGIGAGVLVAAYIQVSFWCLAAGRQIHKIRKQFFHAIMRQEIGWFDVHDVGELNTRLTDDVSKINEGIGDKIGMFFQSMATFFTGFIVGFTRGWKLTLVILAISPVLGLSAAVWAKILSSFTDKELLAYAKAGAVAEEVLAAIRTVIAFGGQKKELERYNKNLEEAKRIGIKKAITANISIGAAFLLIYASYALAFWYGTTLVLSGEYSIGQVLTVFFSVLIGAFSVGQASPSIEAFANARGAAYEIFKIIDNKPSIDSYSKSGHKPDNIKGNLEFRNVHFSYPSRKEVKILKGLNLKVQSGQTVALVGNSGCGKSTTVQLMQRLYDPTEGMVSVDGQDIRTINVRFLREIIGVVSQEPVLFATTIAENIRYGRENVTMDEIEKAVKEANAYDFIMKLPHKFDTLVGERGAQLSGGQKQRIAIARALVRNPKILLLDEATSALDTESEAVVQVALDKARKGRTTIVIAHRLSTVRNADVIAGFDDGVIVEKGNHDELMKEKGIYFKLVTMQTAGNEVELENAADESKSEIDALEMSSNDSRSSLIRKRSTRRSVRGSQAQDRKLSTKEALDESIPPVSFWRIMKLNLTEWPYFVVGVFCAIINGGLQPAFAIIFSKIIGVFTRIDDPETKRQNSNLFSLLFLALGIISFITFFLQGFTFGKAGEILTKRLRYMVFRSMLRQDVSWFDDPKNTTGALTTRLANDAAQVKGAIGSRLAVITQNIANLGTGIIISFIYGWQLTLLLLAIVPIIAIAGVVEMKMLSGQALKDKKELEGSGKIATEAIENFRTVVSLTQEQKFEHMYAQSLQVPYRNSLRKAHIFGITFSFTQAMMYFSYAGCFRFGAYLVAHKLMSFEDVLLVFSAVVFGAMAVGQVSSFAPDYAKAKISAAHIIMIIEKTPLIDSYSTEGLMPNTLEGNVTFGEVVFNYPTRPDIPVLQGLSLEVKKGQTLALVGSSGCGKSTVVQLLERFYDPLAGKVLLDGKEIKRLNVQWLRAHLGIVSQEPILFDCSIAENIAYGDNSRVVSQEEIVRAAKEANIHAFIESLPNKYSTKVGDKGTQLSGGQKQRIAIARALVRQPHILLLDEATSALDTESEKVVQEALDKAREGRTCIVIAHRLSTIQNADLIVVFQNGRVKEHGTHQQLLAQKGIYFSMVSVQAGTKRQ

Sequence of Multidrug resistance-associated protein 1 (P33527 whole entry): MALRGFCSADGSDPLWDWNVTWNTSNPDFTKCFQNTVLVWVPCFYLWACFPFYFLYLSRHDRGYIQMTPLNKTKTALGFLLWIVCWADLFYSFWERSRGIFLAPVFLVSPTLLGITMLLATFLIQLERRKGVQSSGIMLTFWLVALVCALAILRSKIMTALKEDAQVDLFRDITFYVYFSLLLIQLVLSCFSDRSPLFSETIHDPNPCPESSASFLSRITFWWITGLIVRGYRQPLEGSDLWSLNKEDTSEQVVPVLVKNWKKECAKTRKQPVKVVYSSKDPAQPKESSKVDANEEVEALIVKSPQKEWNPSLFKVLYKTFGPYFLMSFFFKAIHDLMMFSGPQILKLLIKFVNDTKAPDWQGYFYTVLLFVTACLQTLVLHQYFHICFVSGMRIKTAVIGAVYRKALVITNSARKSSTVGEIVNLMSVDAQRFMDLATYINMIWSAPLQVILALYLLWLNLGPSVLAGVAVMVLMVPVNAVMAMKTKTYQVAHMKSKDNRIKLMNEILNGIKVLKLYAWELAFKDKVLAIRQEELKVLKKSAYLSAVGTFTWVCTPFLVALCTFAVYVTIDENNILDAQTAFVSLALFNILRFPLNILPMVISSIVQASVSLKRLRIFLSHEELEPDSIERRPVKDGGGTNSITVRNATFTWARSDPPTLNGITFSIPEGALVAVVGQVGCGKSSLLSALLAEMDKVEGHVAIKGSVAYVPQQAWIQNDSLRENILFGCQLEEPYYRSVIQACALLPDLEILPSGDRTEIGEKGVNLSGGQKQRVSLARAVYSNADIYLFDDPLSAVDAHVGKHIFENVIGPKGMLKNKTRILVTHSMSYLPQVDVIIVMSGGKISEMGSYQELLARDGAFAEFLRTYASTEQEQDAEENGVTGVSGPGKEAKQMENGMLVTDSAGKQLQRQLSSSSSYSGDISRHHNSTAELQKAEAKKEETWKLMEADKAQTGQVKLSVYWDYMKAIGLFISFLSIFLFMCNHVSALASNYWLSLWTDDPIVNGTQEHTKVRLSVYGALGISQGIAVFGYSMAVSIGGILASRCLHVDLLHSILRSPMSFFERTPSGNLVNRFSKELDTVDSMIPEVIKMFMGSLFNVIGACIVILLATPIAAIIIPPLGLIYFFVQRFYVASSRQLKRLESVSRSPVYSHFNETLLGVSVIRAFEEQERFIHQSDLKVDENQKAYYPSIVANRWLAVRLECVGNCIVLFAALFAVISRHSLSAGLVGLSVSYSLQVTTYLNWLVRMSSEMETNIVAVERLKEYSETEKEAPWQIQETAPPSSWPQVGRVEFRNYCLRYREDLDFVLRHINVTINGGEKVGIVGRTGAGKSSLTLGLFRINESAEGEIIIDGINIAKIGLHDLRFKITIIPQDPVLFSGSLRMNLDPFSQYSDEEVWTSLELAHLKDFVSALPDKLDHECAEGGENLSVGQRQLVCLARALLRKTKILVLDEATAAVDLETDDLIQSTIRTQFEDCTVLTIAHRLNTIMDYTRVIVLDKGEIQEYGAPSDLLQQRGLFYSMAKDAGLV

Activity [1] | SMILES | Activity [2]
substrate [+] | CC[C@]1(O)C[C@H]2CN(CCc3c([nH]c4ccccc34)[C@@](C(=O)OC)(c3cc4c(cc3OC)N(C=O)[C@H]3[C@@](O)(C(=O)OC)[C@H](OC(C)=O)[C@]5(CC)C=CCN6CC[C@]43[C@@H]65)C2)C1 [VINCRISTINE] | 
 | CCC1C[N+]2(CCCC3(C)N=N3)C3CC45c6ccccc6N(C)C4C2CC1C3C5O (configuration not stated) | substrate [+]
